Assay results from patent US6894068B2, “Substituted benzimidazoles as non-nucleoside inhibitors of reverse transcriptase” (The United States of America as represented by the …, priority 1997, dated 2005).
Like-named read-outs stand apart in the source and are kept apart here.

Experiments:
HIV-1 WT virus (NL4-3) = test: microbe, parasite or virus in culture; format: cell-based; settings: for EC50: Human immunodeficiency virus 1, NL43, CEM-SS, read-out: EC50
Method: Evaluation of these compounds for the inhibition of HIV-1 was determined as the fifty percent cell culture inhibitory concentration (CIC50) in CEMSS cell culture with WT virus (NL4-3).
(§1) In this Example, the antiviral and cellular toxicity of NNRTIs was investigated, using the cytopathic cell killing assay described by Yang (Yang et al., “Characteristics of a Group of Non-nucleoside Reverse Transcriptase Inhibitors with Structural Diversity and Potent Anti-Human Immunodeficiency Virus Activity,” Leukemia 9:S75-S85 [1995]). Briefly, in this method cells (e.g., the CEM-SS cell line, available from the NIAID AIDS Research and Reference Program [ARRRP]) were seeded at a density of 5×10^3 cells/well, into the wells of a 96-well microtiter plate. The cells were then infected with HIV virus (either mutant or WT), at a multiplicity of infection (MOI) previously determined to provide complete cell killing by 6 days of culture post-infection (e.g., MOI of 0.01-0.05). Each of the HIV isolates was pre-titered to induce equivalent levels of infection based on cell killing or virus production, prior to their use in these assays. A range of test compound concentrations was added to the wells in triplicate (e.g., serial half-log dilutions) to evaluate inhibition of HIV infection. Controls for each assay included drug controls (drug colorimetric control wells), drug cytotoxicity control wells (cells with drug), virus control wells (cells with virus), and cell viability controls (cells only). Positive control drugs (e.g. AZT and ddC) were also run in parallel.
(§2) After six days of incubation at 37° C., cell viability was determined spectrophotometrically at 450 nm for each well, using the metabolic reduction of XTT to a soluble colored formazan. (See, Gartner and Popovic, “Virus Isolation and Production, in Aldovini and Walker (eds.), Techniques in HIV Research, Stockton Press, NY, pp. […] [1991]; and Nara and Fischinger, “Quantitative Infectivity Assay for HIV-1 and HIV-2, ” Nature 332:469-470 [1988]).
(§3) The in vitro therapeutic index (TI50) was defined as the fold-difference between the EC50 and IC50. The results for the various compounds are included in FIGS. 8 and 19.

HIV-1 isolate K101E = test: Cytopathic cell killing assay, MT-4 cells, isolate K101E; format: cell-based; settings: Human immunodeficiency virus 1, MT4, read-out: EC50, isolate K101E, Table 4; MT-4 cells
Excerpt: (§4) The various HIV isolates tested in the Figures are those corresponding to wild-type virus (NL4-3) and the other strains listed by their RT mutations. The three 4×AZT isolates included in the Figures represent AZT drug-resistant variants. For example, the 4×AZT/L100I isolate has five mutations: four mutations confer increased resistance to AZT, and the other mutation is located within the NNRTI binding pocket. TZB and nevir. (nevirapine) are two well-known NNRTIs, included in this experiment for comparison purposes.
as §1, §2, §3

HIV-1 isolate K103N = test: Cytopathic cell killing assay, MT-4 cells, isolate K103N; format: cell-based; settings: Human immunodeficiency virus 1, MT4, read-out: EC50, isolate K103N, Table 4; MT-4 cells
Excerpt: as §4, §1, §2, §3

HIV-1 isolate V108I = test: Cytopathic cell killing assay, MT-4 cells, isolate V108I; format: cell-based; settings: Human immunodeficiency virus 1, MT4, read-out: EC50, isolate V108I, Table 4; MT-4 cells
Excerpt: as §4, §1, §2, §3

HIV-1 isolate Y181C = test: Cytopathic cell killing assay, MT-4 cells, isolate Y181C; format: cell-based; settings: Human immunodeficiency virus 1, MT4, read-out: EC50, isolate Y181C, Table 9; MT-4 cells
Excerpt: as §4, §1, §2, §3

HIV-1 isolate Y188C = test: Cytopathic cell killing assay, MT-4 cells, isolate Y188C; format: cell-based
Excerpt: as §4, §1, §2, §3

[1] = system: HIV-1 isolate 4xAZT/Y181C; test: Cytopathic cell killing assay, MT-4 cells, isolate 4xAZT/Y181C; format: cell-based; settings: read-out: EC50, isolate 4XAZT/Y181C; Table 9; MT-4 cells
Excerpt: as §4, §1, §2, §3

[2] = system: WT and HIV-1 variants containing amino acid substitutions in RT; format: cell-based; settings: Table 4 isolates
Excerpt: In these Tables, antiviral data are reported as the quantity of drug in μM required to reduce cell killing or virus production by 50% (EC50). The various HIV isolates tested in the Figures are those corresponding to wild-type virus (NL4-3) and the other strains listed by their RT mutations. The three 4×AZT isolates included in the Figures represent AZT drug-resistant variants.
Briefly, in this method cells (e.g., the CEM-SS cell line, available from the NIAID AIDS Research and Reference Program [ARRRP]) were seeded at a density of 5×10^3 cells/well, into the wells of a 96-well microtiter plate. The cells were then infected with HIV virus (either mutant or WT), at a multiplicity of infection (MOI) previously determined to provide complete cell killing by 6 days of culture post-infection (e.g., MOI of 0.01-0.05). Each of the HIV isolates was pre-titered to induce equivalent levels of infection based on cell killing or virus production, prior to their use in these assays. A range of test compound concentrations was added to the wells in triplicate (e.g., serial half-log dilutions) to evaluate inhibition of HIV infection. Controls for each assay included drug controls (drug colorimetric control wells), drug cytotoxicity control wells (cells with drug), virus control wells (cells with virus), and cell viability controls (cells only). Positive control drugs (e.g. AZT and ddC) were also run in parallel.
as §2
Antiviral and toxicity data were reported as the quantity of drug required to inhibit 50% of virus-induced cell killing or virus production (EC50), and the quantity of drug required to […] (IC50). The in vitro therapeutic index (TI50) was defined as the fold-difference between the EC50 and IC50.

HIV-1 isolate Y188H = test: Cytopathic cell killing assay, isolate Y188H; format: cell-based; settings: Human immunodeficiency virus 1, read-out: EC50, isolate Y188H
Excerpt: as §4, §1, §2, §3

[3] = Table 7, drug concentration required to reduce cell killing or virus production by 50%, WT

SMILES | cytotoxicity and anti-viral effect, summary graph, result in words (HIV-1 WT virus (NL4-3); FIGS. 10-12) | EC50 (HIV-1 WT virus (NL4-3); [3]) [nM] | EC50 (HIV-1 WT virus (NL4-3); Table 11, CEMSS/NL4-3, NRVC = no reduction in viral CPE) [nM] | therapeutic index at 50% (TC50) (HIV-1 WT virus (NL4-3); difference between efficacy of the drug and cellular toxicity, FIG. 10) | EC50 (HIV-1 isolate K101E) [nM] | EC50 (HIV-1 isolate K103N) [nM] | EC50 (HIV-1 isolate V108I) [nM] | EC50 (HIV-1 isolate Y181C) [nM] | EC50 (HIV-1 isolate Y188C; Human immunodeficiency virus 1, MT4, read-out: EC50, isolate Y188C, Table 4, MT-4 cells) [µM] | EC50 (HIV-1 isolate Y188C; Human immunodeficiency virus 1, MT4, read-out: EC50, isolate Y188C, Table 10, values in μM) [µM] | EC50 [1] [nM] | fold better in the inhibition of the various viral isolates than des-methyl analog 26 [2] | melting point [°C] | EC50 (HIV-1 isolate Y188H) [nM]
Cc1cccc2c1nc(-c1c(F)cccc1F)n2Cc1c(F)cccc1F [Compound 33, 1-(2,6-difluorobenzyl)-2-(2,6-difluorophenyl)-4-methylbenzimidazole] | very effective therapeutic dose | 440 | 440 | greater than one log in concentration | 16700 | 8100 | 2800 | 4300 | 2.3 | 2.3 | 3500 | 3- to 4 fold | 182 to 186 | 
O=[N+]([O-])c1cccc2c1nc(-c1c(F)cccc1F)n2Cc1c(F)cccc1F [Compound 3100, 1-(2,6-difluorobenzyl)-2-(2,6-difluorophenyl)-4-nitrobenzimidazole] |  | 2400 |  |  |  |  |  |  |  |  |  |  | 169 | > 50000
